According to patent US20090233871A1, “Complexed polypeptide and adjuvant for improved vaccines” (priority 2004, published 2009):

Columns and labels:
[1] = system: CD8+ CTLs, T2 stimulators pulsed with polypeptide; type: in vivo, HLA-A2 transgenic mice; settings: 100 μg CpG, equimolar CpG:peptide, s.c., day 10 (FIG. 8)
IFNγ-secreting CD8+ CTLs = assay: primary IFNγ Elispot of CD8+ CTLs from mice primed with peptide plus CpG; settings: 100 μg polypeptide + 100 μg CpG + 10 μg MPL-AF s.c., spleens day 10

Sequence	priming on addition of a KCSRNR amino acid sequence vs native polypeptide [1]	frequencies of IFNγ-secreting CTLs (priming efficiency) (IFNγ-secreting CD8+ CTLs)
KTWGQYWQV	increased priming	–
LTFNYRNL (Synthetically generated peptide) [H60]	–	most inefficient
